The test system of data set [1] is RAW264.7. Put plainly: Anti-inflammatory activity against LPS-Induced mouse RAW264.7 cells assessed as inhibition of Nitric oxide release at 10 uM measured after 18 hrs by Griess reagent assay relative to control. In kind it is functional. Further details: Activity: scale not given: the % may be the effect or the level left. To be noted: for inhibition at 10 µM: Mus musculus, RAW264.7.

For data set [2], the system named is Mus musculus. The data set is described as follows: Anti-inflammatory activity against female Kunming mouse model xylene-induced auricle edema assessed as inhibition of ear swelling at 100 mg/kg, IP measured after 1 hr relative to control. The format is functional. Also on record: scale not given: the % may be the effect or the level left.
Data set [3] in a line: Cytotoxicity against mouse RAW264.7 cells assessed as cell survival at 10 uM preincubated for 4 hrs followed by compound addition and measured after 20 hrs by MTT assay relative to control. The settings on record: read-out: Survival. The format is toxicity, cell-based. In general terms: Tetrazolium dyes change colour on reduction, which living cells bring about.
The subject of data set [4] is RAW264.7. Put plainly: Anti-inflammatory activity against LPS-Induced mouse RAW264.7 cells assessed as inhibition of COX-2 at 5 uM incubated for 24 hrs by ELISA method relative to control. The format is functional.
The test system of data set [5] is RAW264.7. The data set is described as follows: Anti-inflammatory activity against LPS-induced mouse RAW264.7 cells assessed as downregulation of COX-1 protein expression level incubated for 24 hrs by ELISA method. In kind it is functional, cell-based. (ELISA stands for enzyme-linked immunosorbent assay.)
Data set [6] has as its system RAW264.7. Put plainly: Anti-inflammatory activity against LPS-induced mouse RAW264.7 cells assessed as inhibition of COX-1 expression at 5 uM incubated for 24 hrs by ELISA method relative to control. The format is functional.
Data set [7] deals with RAW264.7. Put plainly: Anti-inflammatory activity against LPS-Induced mouse RAW264.7 cells assessed as inhibition of COX-1 expression level at 5 uM incubated for 24 hrs by ELISA method relative to control. In kind it is functional.
Data set [8] has as its system RAW264.7. The data set is described as follows: Anti-inflammatory activity against LPS-Induced mouse RAW264.7 cells assessed as inhibition of COX-2 expression level at 5 uM incubated for 24 hrs by ELISA method relative to control. In kind it is functional.
For data set [9], the system named is RAW264.7. The data set is described as follows: Anti-inflammatory activity against LPS-induced mouse RAW264.7 cells assessed as inhibition of 5-LOX protein expression at 5 uM incubated for 24 hrs by ELISA method relative to control. The format is functional.
Data set [10] is described as follows: Cytotoxicity against mouse RAW264.7 cells assessed as cell survival at 5 uM preincubated for 4 hrs followed by compound addition and measured after 20 hrs by MTT assay relative to control. In kind it is toxicity, cell-based. To be noted: read-out: Survival.
Data set [11] has as its system RAW264.7. Put plainly: Antiproliferative activity against mouse RAW264.7 cells assessed as tumor growth inhibition at 10 uM preincubated for 4 hrs followed by compound addition and measured after 20 hrs by MTT assay. The format is functional, cell-based.
In data set [12] the test system is RAW264.7. Put plainly: Anti-inflammatory activity against LPS-Induced mouse RAW264.7 cells assessed as inhibition of Nitric oxide release at 1 uM measured after 18 hrs by Griess reagent assay. The format is functional, cell-based. (In general: Nitrite, measured by Griess reagent, commonly stands in for NO production.)
In data set [13] the test system is RAW264.7. Put plainly: Anti-inflammatory activity against LPS-Induced mouse RAW264.7 cells assessed as inhibition of Nitric oxide release at 1 uM measured after 18 hrs by Griess reagent assay relative to control. In kind it is functional.
Data set [14] has as its system RAW264.7. Put plainly: Anti-inflammatory activity against LPS-Induced mouse RAW264.7 cells assessed as inhibition of PGE2 production at 5 uM measured after 24 hrs by ELISA method. In kind it is functional, cell-based.
Data set [15] relates to RAW264.7. The data set is described as follows: Anti-inflammatory activity against LPS-Induced mouse RAW264.7 cells assessed as inhibition of PGE2 production at 1uM measured after 24 hrs by ELISA method. In kind it is functional.
In data set [16] the test system is RAW264.7. The data set is described as follows: Anti-inflammatory activity against LPS-Induced mouse RAW264.7 cells assessed as inhibition of PGE2 production at 10 uM measured after 24 hrs by ELISA method. In kind it is functional.
For data set [17], the system named is RAW264.7. Put plainly: Anti-inflammatory activity against LPS-Induced mouse RAW264.7 cells assessed as increase inhibition of PGE2 production measured after 24 hrs by ELISA method. In kind it is functional, cell-based.
Data set [18] concerns RAW264.7. Put plainly: Anti-inflammatory activity against LPS-Induced mouse RAW264.7 cells assessed as inhibition in COX-2 expression at 1uM incubated for 24 hrs by ELISA method. In kind it is functional, cell-based.
Data set [19] concerns RAW264.7. Put plainly: Anti-inflammatory activity against LPS-Induced mouse RAW264.7 cells assessed as inhibition of PGF1 production at 1 uM incubated for 24 hrs by ELISA method relative to control. In kind it is functional.
The test system of data set [20] is RAW264.7. The data set is described as follows: Anti-inflammatory activity against LPS-Induced mouse RAW264.7 cells assessed as inhibition of PGF1 production at 5 uM incubated for 24 hrs by ELISA method relative to control. In kind it is functional.
For data set [21], the system named is RAW264.7. The data set is described as follows: Anti-inflammatory activity against LPS-Induced mouse RAW264.7 cells assessed as inhibition of LT release at 1 uM incubated for 24 hrs by LT determination assay relative to control. In kind it is functional.
The subject of data set [22] is RAW264.7. Put plainly: Anti-inflammatory activity against LPS-Induced mouse RAW264.7 cells assessed as inhibition of TXB-2 release at 1 uM incubated for 24 hrs by LT determination assay relative to control. In kind it is functional.
Data set [23] deals with RAW264.7. The data set is described as follows: Anti-inflammatory activity against LPS-Induced mouse RAW264.7 cells assessed as inhibition of LT release at 5 uM incubated for 24 hrs by LT determination assay relative to control. In kind it is functional.
For data set [24], the system named is RAW264.7. The data set is described as follows: Anti-inflammatory activity against LPS-Induced mouse RAW264.7 cells assessed as inhibition of TXB-2 release at 5 uM incubated for 24 hrs by LT determination assay relative to control. In kind it is functional. Further details: scale not given: the % may be the effect or the level left.
The test system of data set [25] is Mus musculus. Put plainly: Anti-inflammatory activity against female Kunming mouse model xylene-induced auricle edema assessed as inhibition rate of ear swelling measured after 1 hr. In kind it is functional, organism-based.
In data set [26] the test system is Mus musculus. The data set is described as follows: Anti-inflammatory activity against female Kunming mouse model xylene-induced auricle edema assessed as inhibition of ear swelling at 50 mg/kg, ip measured after 1 hr relative to control. In kind it is functional. Further details: scale not given: the % may be the effect or the level left.

Activity calls are given as the source filed them. The rule behind the calls is not given here.

In the case of `COC(=O)C#CC1(O)C(=O)Nc2ccc(C)cc21` (configuration not stated), the Activity in the data set with RAW264.7 [1] is given as 81.68%.
Consider `Cc1ccc(-c2cc(C(F)(F)F)nn2-c2ccc(S(N)(=O)=O)cc2)cc1` [CELECOXIB], for which the Activity in the data set with Mus musculus [2] is 93.23%.
As to `COC(=O)C#CC1(O)C(=O)N(C)c2cccc(Cl)c21` (configuration not stated), in data set [3], the viability at 20 h, 10 µM came out at 86.7%.
In the case of `COC(=O)C#CC1(O)C(=O)N(Cc2cccc3ccccc23)c2cc(Cl)ccc21` (configuration not stated), the inhibition (commonly the change of the read-out against control, counted positive when it falls) at 10 µM with RAW264.7 [1] was found to be 102%. In addition, the inhibition at 5 µM in the data set on RAW264.7 [4] is 42.6%; with RAW264.7 [6] it was 35.3%; with RAW264.7 [7], 35.3%; in the data set with RAW264.7 [8], 42.6%; with RAW264.7 [9], 71.2%. Besides, in the data set on RAW264.7 [5], the inhibition result is “Active”.
Regarding `COC(=O)C#CC1(O)C(=O)N(Cc2cccc3ccccc23)c2ccc(Cl)cc21` (configuration not stated), the viability at 20 h, 10 µM in data set [3] is 99.9%.
`COC(=O)C#CC1(O)C(=O)N(Cc2ccccc2)c2cc(Cl)ccc21` (configuration not stated): the viability at 20 h, 5 µM in data set [10] turned out to be 57.9%. Also, in the data set with RAW264.7 [11], the outcome was Active. Further, the inhibition result with RAW264.7 [12], with RAW264.7 [14] and with RAW264.7 [18] was “Active” throughout. Further, the inhibition at 1 µM in the data set on RAW264.7 [13] was found to be 50%; in the data set on RAW264.7 [15], 58%; in the data set on RAW264.7 [19] it was 16%; in the data set on RAW264.7 [21], 25.9%; with RAW264.7 [22], 25.4%. Also, the values for the inhibition at 10 µM in the data set with RAW264.7 [1] and in the data set on RAW264.7 [16] were 101% and 94.5%, respectively. The inhibition entry in the data set on RAW264.7 [17] is “Dose-dependent-effect”. The inhibition at 5 µM with RAW264.7 [4] was determined as 38.8%; with RAW264.7 [20], 16.6%; in the data set with RAW264.7 [23] it was 11%; with RAW264.7 [8] it was 38.8%. Also, the Activity in the data set on RAW264.7 [24] is 21.14%; with Mus musculus [25], “Dose-dependent-effect”; with Mus musculus [26] it was 78.14%; in the data set on Mus musculus [2], 85.43%.

(Values after ChEMBL document CHEMBL6153019, “A series of indole-derived γ-hydroxy propiolate esters as potent anti-inflammatory agents: Design, synthesis, in-vitro and in-vivo biological studies” (Eur J Med Chem, 2024).)
